Results from patent publication US20090030086A1, “ANTIMICROBIAL AGENTS” (priority 2005, published 2009).
Converted amounts (≈) assume the structure as drawn. Read-outs that look alike come from different tables or passages of the source.

How the values were obtained:
[1] = tested on: P. acnes NCTC 737; experiment: MBC assay; type: cell-based, Propionibacterium acnes
Method: (§1) The Propionibacterium spp organisms were cultured and maintained on Wilkins-Chalgren Anaerobe Medium (agar and broth) at pH 6.0; cultures were incubated anaerobically at 37° C. for 72 hours.
(§2) This assay, normally carried out after an MIC assay, determines the minimum concentration of a compound that is lethal to the micro-organism being tested.
(§3) These samples were then individually sub-cultured on non-selective agar medium, under the incubation conditions described above. Following incubation they were examined visually for bacterial growth.
(§4) MIC, MBC and DDA assays, as described above, were carried out using a range of different benzoquinones and hydroquinones. Supplemented DDA assays, in the presence of salt and lipid, were also conducted.

[2] = tested on: S. aureus ATCC 29213; experiment: MBC assay; type: cell-based, Staphylococcus aureus
Method: (§5) The staphylococci and enterococci were cultured and maintained on Mueller-Hinton Medium (agar and broth) at pH 7.2; they were incubated aerobically at 37° C. for 24 hours.
as §2, §3
(§6) The following experiments all used S. aureus ATCC 29213 as the test organism. MIC, MBC and DDA assays, as described above, were carried out using a range of different benzoquinones and hydroquinones. Supplemented DDA assays, in the presence of salt, lipid and blood, were also conducted.

[3] = tested on: P. acnes NCTC 737; experiment: MIC assay; type: cell-based, Propionibacterium acnes
Method: 2. Propionibacterium spp.—the principal propionibacterial strain used in these studies was Propionibacterium acnes NCTC 737.
as §1
(§7) This is a standard international method for quantitatively assessing the antimicrobial activity of a compound in a liquid medium. The method used a 96-well microtitre plate, capable of holding about 200 μl of liquid per well. […] The culture media were as described above for the relevant test organisms.
(§8) The wells were inoculated with a liquid suspension of freshly grown micro-organism and incubated under the conditions described above. After incubation, the microtitre plate was examined visually (with the aid of a light box) for cloudiness in each well, which would indicate microbial growth. The MIC value was recorded as the lowest concentration of test compound required to inhibit microbial growth, i.e., the lowest concentration for which the liquid in the well remained clear.
(§9) The assays were conducted in duplicate and included both negative (culture medium only) and positive (culture medium, diluting solvent and inoculum) controls.
as §4

[4] = tested on: S. aureus ATCC 29213; experiment: Supplemented disc diffusion assay; type: cell-based, Staphylococcus aureus; conditions: for zone of inhibition at 200 µg/disc: Staphylococcus aureus, ATCC29213, 24 h
Method: as §5
(§10) A sterile paper disc was impregnated with a sample of the test compound and a minimum of 30 minutes allowed for the solvents to evaporate as far as possible. The disc was then placed on an agar plate onto which the test micro-organism had been inoculated. The plate was then incubated under the conditions described above, following which it was examined visually for signs of bacterial growth. […] The diameter of this zone of “inhibition” was measured using a ProtoCOL™ automated zone sizer (Synbiosis, Cambridge, UK).
(§11) Performance under these conditions can provide a more reliable indication of activity on topical application. For assays conducted using S. aureus strains, the supplements were defibrinated horse blood (5% v/v), lipid (Tween™ 80 at 1% v/v) and sodium chloride (100 mM). For those using Propionibacterium spp. strains, the supplements were lipid (Tween™ 80 at 1% v/v) and sodium chloride (100 mM).
as §6
(§12) For most DDA assays, 200 μg of each compound was loaded onto each disc.

[5] = tested on: P. acnes NCTC 737; experiment: Supplemented disc diffusion assay; type: cell-based, Propionibacterium acnes; conditions: for zone of inhibition at 200 µg/disc: Cutibacterium acnes, NCTC737, 72 h
Method: as §1, §10, §11, §4, §12

[6] = tested on: S. aureus ATCC 29213; experiment: Disc diffusion assay (DDA); type: cell-based, Staphylococcus aureus; conditions: for zone of inhibition at 200 µg/disc: Staphylococcus aureus
Method: as §5, §10
(§13) The area of the zone of inhibition was calculated from the measured zone diameter (D) using the formula π(D/2)^2.
as §12

[7] = tested on: S. aureus ATCC 29213; experiment: MIC assay; type: cell-based, Staphylococcus aureus
Method: 1. Staphylococcus aureus—the principal staphylococcal test micro-organism used in these studies was Staphylococcus aureus ATCC 29213. This strain is the one recommended for QC/QA purposes in Minimum Inhibitory Concentration (MIC) assays by the US Clinical and Laboratory Standards Institute (formerly the NCCLS), an FDA-recognised body.
as §5, §7, §8, §9, §6

[8] = tested on: P. acnes NCTC 737; experiment: Disc diffusion assay (DDA); type: cell-based, Propionibacterium acnes; conditions: for zone of inhibition at 200 µg/disc: Cutibacterium acnes
Method: as §1, §10, §13, §12

[9] = P. acnes NCTC 737, Wilkins-Chalgren broth pH 6.0, anaerobic, 37° C., 72 hours
[10] = S. aureus ATCC 29213, Tween 80 at 1% v/v, 200 μg per disc (thymoquinone 50 μg, 2,6-dimethoxy-p-benzoquinone 100 μg)
[11] = S. aureus ATCC 29213, defibrinated horse blood 5% v/v, 200 μg per disc (thymoquinone 50 μg, 2,6-dimethoxy-p-benzoquinone 100 μg)
[12] = S. aureus ATCC 29213, sodium chloride 100 mM, 200 μg per disc (thymoquinone 50 μg, 2,6-dimethoxy-p-benzoquinone 100 μg)
[13] = P. acnes NCTC 737, Tween 80 at 1% v/v, 200 μg per disc (2,6-dimethoxy-p-benzoquinone 100 μg)
[14] = P. acnes NCTC 737, sodium chloride 100 mM, 200 μg per disc (2,6-dimethoxy-p-benzoquinone 100 μg)
[15] = S. aureus ATCC 29213, unsupplemented agar, 200 μg per disc (thymoquinone 50 μg, 2,6-dimethoxy-p-benzoquinone 100 μg)
[16] = S. aureus ATCC 29213, Mueller-Hinton broth pH 7.2, aerobic, 37° C., 24 hours
[17] = P. acnes NCTC 737, unsupplemented agar, 200 μg per disc (2,6-dimethoxy-p-benzoquinone 100 μg)

CCCCCCOc1cc(C)c(O)c(C)c1C [1-o-hexyl-2,3,5-trimethyl-p-hydroquinone]
MBC ([1]; P. acnes NCTC 737): 31.25 µg/mL (≈ 132 µM) | MIC/MBC ratio ([1]; P. acnes NCTC 737): 0.5 | MBC [2]: 7.8 µg/mL (≈ 33 µM) | MIC/MBC ratio [2]: 0.5 | MIC [3, 9]: 15.6 µg/mL (≈ 66 µM) | DDA + lipid [4, 10]: 0.0 mm | DDA + blood [4, 11]: 0.0 mm | DDA + salt [4, 12]: 8.72 mm | DDA + lipid [5, 13]: 0.0 mm | DDA + salt [5, 14]: 16.43 mm | DDA (diameter of zone of inhibition) [6, 15]: 8.61 mm | MIC [7, 16]: 3.9 µg/mL (≈ 16.5 µM) | DDA (diameter of zone of inhibition) [8, 17]: 16.64 mm

Oc1ccc(O)c(F)c1F [2,3-difluoro-p-hydroquinone]
MBC ([1]; P. acnes NCTC 737): 31.25 µg/mL (≈ 214 µM) | MIC/MBC ratio ([1]; P. acnes NCTC 737): 0.25 | MBC [2]: 15.6 µg/mL (≈ 107 µM) | MIC/MBC ratio [2]: 1 | MIC [3, 9]: 7.8 µg/mL (≈ 53.4 µM) | DDA + lipid [4, 10]: 14.63 mm | DDA + blood [4, 11]: 10.27 mm | DDA + salt [4, 12]: 15.56 mm | DDA + lipid [5, 13]: 0.0 mm | DDA + salt [5, 14]: 0.0 mm | DDA (diameter of zone of inhibition) [6, 15]: 15.77 mm | MIC [7, 16]: 15.6 µg/mL (≈ 107 µM) | DDA (diameter of zone of inhibition) [8, 17]: 0.0 mm

COC1=C(OC)C(=O)C(C)=CC1=O [2,3-dimethoxy-5-methyl-p-benzoquinone]
MBC ([1]; Cutibacterium acnes, NCTC737, P. acnes NCTC 737, read-out: MBC): 31.2 µg/mL (≈ 172 µM) | MIC/MBC ratio ([1]; P. acnes NCTC 737): 0.5 | MIC/MBC ratio [2]: 0.5 | MBC ([2]; Staphylococcus aureus, ATCC29213, read-out: MBC): 15.6 µg/mL (≈ 85.6 µM) | MIC ([3]; Cutibacterium acnes, NCTC737, P. acnes NCTC 737, Wilkins-Chalgren broth pH 6.0, anaerobic, 37° C., 72 hours, read-out: MIC): 15.6 µg/mL (≈ 85.6 µM) | zone of inhibition at 200 µg/disc ([4]; S. aureus ATCC 29213, Tween 80 at 1% v/v, 200 μg per disc (thymoquinone 50 μg, 2,6-dimethoxy-p-benzoquinone 100 μg), read-out: DDA + lipid): 26.5 mm | zone of inhibition at 200 µg/disc ([4]; S. aureus ATCC 29213, defibrinated horse blood 5% v/v, 200 μg per disc (thymoquinone 50 μg, 2,6-dimethoxy-p-benzoquinone 100 μg), read-out: DDA + blood): 19.9 mm | zone of inhibition at 200 µg/disc ([4]; S. aureus ATCC 29213, sodium chloride 100 mM, 200 μg per disc (thymoquinone 50 μg, 2,6-dimethoxy-p-benzoquinone 100 μg), read-out: DDA + salt): 25.8 mm | zone of inhibition at 200 µg/disc ([5]; P. acnes NCTC 737, Tween 80 at 1% v/v, 200 μg per disc (2,6-dimethoxy-p-benzoquinone 100 μg), read-out: DDA + lipid): 44 mm | zone of inhibition at 200 µg/disc ([5]; P. acnes NCTC 737, sodium chloride 100 mM, 200 μg per disc (2,6-dimethoxy-p-benzoquinone 100 μg), read-out: DDA + salt): 43.4 mm | effect of lipid on antimicrobial activity ([5]; P. acnes NCTC 737, activity increases in the presence of lipid): potentiated | zone of inhibition at 200 µg/disc ([6]; ATCC29213, S. aureus ATCC 29213, unsupplemented agar, 200 μg per disc (thymoquinone 50 μg, 2,6-dimethoxy-p-benzoquinone 100 μg), read-out: DDA (diameter of zone of inhibition)): 26.8 mm | MIC ([7]; Staphylococcus aureus, ATCC29213, S. aureus ATCC 29213, Mueller-Hinton broth pH 7.2, aerobic, 37° C., 24 hours, read-out: MIC): 7.8 µg/mL (≈ 42.8 µM) | zone of inhibition at 200 µg/disc ([8]; NCTC737, P. acnes NCTC 737, unsupplemented agar, 200 μg per disc (2,6-dimethoxy-p-benzoquinone 100 μg), read-out: DDA (diameter of zone of inhibition)): 33.4 mm

CC1=C(Br)C(=O)C(C(C)C)=C(Br)C1=O [2,5-dibromo-6-isopropyl-3-methyl-p-benzoquinone]
MBC ([1]; Cutibacterium acnes, NCTC737): 3.9 µg/mL (≈ 12.1 µM) | MIC/MBC ratio ([1]; P. acnes NCTC 737): 0.25 | MIC/MBC ratio [2]: 0.5 | MBC ([2]; Staphylococcus aureus, ATCC29213): 1.95 µg/mL (≈ 6.06 µM) | activity against P. acnes NCTC 737 (in words) [3]: strongly so | MIC ([3]; Cutibacterium acnes, NCTC737, 72 h, pH 6): 0.98 µg/mL (≈ 3.04 µM) | zone of inhibition at 200 µg/disc ([4]; read-out: DDA + blood): 19.3 mm | zone of inhibition at 200 µg/disc ([4]; read-out: DDA + lipid): 23 mm | zone of inhibition at 200 µg/disc ([4]; read-out: DDA + salt): 42.3 mm | zone of inhibition at 200 µg/disc ([5]; read-out: DDA + lipid): 34.7 mm | zone of inhibition at 200 µg/disc ([5]; read-out: DDA + salt): 71.2 mm | zone of inhibition at 200 µg/disc ([6]; ATCC29213, read-out: DDA (diameter of zone of inhibition)): 39.5 mm | activity against S. aureus ATCC 29213 (in words) [7]: strongly so | MIC ([7]; Staphylococcus aureus, ATCC29213, 24 h, pH 7.2): 0.98 µg/mL (≈ 3.04 µM) | zone of inhibition at 200 µg/disc ([8]; NCTC737, read-out: DDA (diameter of zone of inhibition)): > 90 mm
